Experimental data reported in article PMC12670396, “Crizotinib- or Ceritinib-Conjugated Platinum(IV) Prodrugs As Potent Multiaction Agents Inducing Antiproliferative Effects in 2D and 3D Cancer Cell Models” (Journal of Medicinal Chemistry, 2025).

Legend:
[1] = target: T1, ALK (Homo sapiens, UniProt Q9HC35+Q9UM73); test: Western blot of ALK phosphorylation state; assay type: cell-based; conditions: NCI-H2228 lysates, IC50 concentrations, 24 h
T1 construct: Western blot detection of the ALK phosphorylation state in lysates of NCI-H2228 cells exposed to the tested compounds; endogenous in cells; host or cells: NCI-H2228
Method: Whereas the signals of pALK and pMET are decreased in the presence of the tested compounds, the overall amount of ALK and MET is not markedly changed.
NCI-H2228 cells were seeded in 6-well plates at a density of 2 × 10^5 cells/well and incubated overnight. […] The cells were then harvested and lysed using RIPA lysis buffer supplemented with protease and phosphatase inhibitors as recommended by the manufacturer. Protein extracts were resolved with SDS-PAGE, transferred to a PVDF membrane, and the respective proteins were detected with specific antibodies (anti-phosphoALK, anti-ALK, anti-phosphoMET, anti-MET, and anti-GADPH) and HRP-conjugated secondary antibodies. The signals were obtained with SignalFire ECL Reagent and recorded with an Amersham680 reader.

[2] = test system: CT26 and NCI-H2228 cells; test: Extracellular HMGB1 (ELISA); assay type: cell-based; conditions: IC50 concentrations, 24 h
Method: The amount of HMGB1 in the medium was determined using an enzyme-linked immunosorbent assay (ELISA).
CT26 and NCI-H2228 cells were seeded in 48-well plates at a density of 5 × 10^4 cells/well and grown overnight. […] Aliquots of the supernatants were then withdrawn and processed using the HMGB1 Express ELISA kit (TECAN) according to the manufacturer’s instructions. The final absorbance, proportional to the HMGB1 amount, was read at 420 nm using a multimode SPARK reader (TECAN).

[3] = Stability in RPMI cell culture medium with serum (HPLC); conditions: serum
Method: Two conditions must be met for Pt(IV) complexes to serve as true prodrugs: they must remain stable in biological fluids and should be activated by reduction within the cancer cells to release the bioactive components in their active form, thereby facilitating the rapid onset of cytotoxic effects. […] The reduction in the area of the HPLC peak of the compounds was monitored as a function of time, and their half-lives were calculated (Table and Figures S26,S27).
The stock solutions were prepared by dissolving the compounds in a 1:9 (v/v) mixture of DMSO and RPMI media. After preparation, the samples were injected and stored at 37 °C throughout the experiment. The final concentration of the complexes used for the experiment is 50–60 μM.

T1 sequence (Q9HC35+Q9UM73 fused): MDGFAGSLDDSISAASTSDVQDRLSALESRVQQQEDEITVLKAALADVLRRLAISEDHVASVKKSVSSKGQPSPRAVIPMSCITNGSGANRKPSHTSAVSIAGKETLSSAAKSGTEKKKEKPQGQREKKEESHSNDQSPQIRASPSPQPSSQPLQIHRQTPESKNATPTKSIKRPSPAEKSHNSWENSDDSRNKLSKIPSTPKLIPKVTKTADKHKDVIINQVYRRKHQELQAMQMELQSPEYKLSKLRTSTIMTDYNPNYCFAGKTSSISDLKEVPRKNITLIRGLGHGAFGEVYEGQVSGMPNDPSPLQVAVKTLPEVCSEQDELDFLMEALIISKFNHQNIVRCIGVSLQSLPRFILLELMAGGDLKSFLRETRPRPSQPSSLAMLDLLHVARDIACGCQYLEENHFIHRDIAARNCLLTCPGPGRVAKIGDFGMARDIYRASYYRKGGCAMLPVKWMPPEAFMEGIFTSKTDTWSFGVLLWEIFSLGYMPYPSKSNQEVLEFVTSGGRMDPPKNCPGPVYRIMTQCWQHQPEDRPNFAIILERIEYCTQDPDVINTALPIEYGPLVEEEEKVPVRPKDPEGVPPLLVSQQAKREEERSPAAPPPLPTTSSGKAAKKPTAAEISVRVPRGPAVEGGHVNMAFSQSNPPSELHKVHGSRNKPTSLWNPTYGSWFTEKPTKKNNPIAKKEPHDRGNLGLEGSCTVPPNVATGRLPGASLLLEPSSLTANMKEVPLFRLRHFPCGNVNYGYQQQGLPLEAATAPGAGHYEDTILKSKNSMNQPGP

Structure (SMILES) | phosphorylation of ALK [1] | HMGB1 externalization relative to nontreated control [2] [fold] | stability half-life (t 1/2) [3] [h]
N.N.[Cl][Pt][Cl] [cisPt, cisplatin, reference compound] | no visible effect | 2 | –
CC(Oc1cc(-c2cnn(C3CCN(C(=O)[O][Pt]([Cl])([Cl])[O]C(=O)CCCc4ccccc4)CC3)c2)cnc1N)c1c(Cl)ccc(F)c1Cl.N.N (centres unmarked) [compound 3, ctc-[Pt(NH3)2(crizotinib)(PhB)Cl2]] | – | – | 42
Cc1cc(Nc2ncc(Cl)c(Nc3ccccc3S(=O)(=O)C(C)C)n2)c(OC(C)C)cc1C1CCN(C(=O)[O][Pt]([Cl])([Cl])[O]C(=O)CCCc2ccccc2)CC1.N.N [compound 7, ctc-[Pt(NH3)2(ceritinib)(PhB)Cl2]] | inhibit the phosphorylation | – | 37
